Each structure is given as a SMILES string.

The text below walks through data of patent US20070088024A1, “Active substance combination comprising a carbinol combined to at least an NSAID” (LABORATORIOS DEL DR. ESTEVE S.A., priority 2004, published 2007).

The test system of experiment [1] is male Swiss albino mice. Description: Writhing test in mice (phenylbenzoquinone-induced writhing reactions). The format is in vivo. The conditions noted are these: for % Activity (inhibition of the writhing reactions): 60 minutes prior to phenylbenzoquinone; for ED50: p.o., in mg/kg. How it is done: The Writhing test for the determination of the analgesic activity of the inventive active substance combination is carried out according to the method described in the publication of E. Siegmund et al., Proc. Soc. Exp. Biol. Med. 1957, 95, 729-731 using male Swiss albino mice (20-25 g body weight, obtained from Harlan, S. Feliu de Codinas, Spain). The respective part of the description is hereby incorporated by reference and forms part of the respective disclosure.
The Writhing reactions are induced by intraperitoneal injection of phenylbenzoquinone (25 ml/kg in a 0.02% (volume/volume) ethanolic solution in a 5% (volume/volume) solution in destillated water with Evan's blue in an amount of 0.1% weight/volume) and the writhing reactions are counted during a 15 minute period following the injection. The substances to be tested are orally administered 60 minutes prior to the injection of the phenylbenzoquinone solution. The percentage of the inhibition of the writhing reactions is calculated on the basis of the control group as basis for 0% inhibition.
Background: An intraperitoneal irritant provokes the stretching counted in writhing tests.

Experiment [2] concerns male Swiss albino mice. The experiment is described as follows: Formaline test in mice. It counts as in vivo. As to conditions: 40 mg/kg i.p. How it is done:
The Formaline test for the determination of the analgesic activity of the inventive active substance combination is carried out according to the method described in the publication of T. Ohkubo et al., J. Pharmacol. Exp. Ther. 1990, 252, 1261-1268 using male Swiss albino mice (20-25 g body weight, obtained from Harlan, S. Feliu de Codinas, Spain). The respective part of the description is hereby incorporated by reference and forms part of the respective disclosure.
The substances to be tested are intraperitoneally administered to the mice in 5% by weight solution of arabic gum in destined water as vehicle. 15 minutes later 20 μl of a 5% by weight solution of formaline in saline solution is injected into the back of the right paw of the animals. The total time in seconds of licking and/or biting the injected paw is registered in the acute phase, i.e. 0-5 minutes (phase I), and in the chronic phase, i.e. 15-30 (phase II), minutes after injection of the formaline.
The percentage of inhibition is calculated based on the medium values of the acute and chronic phases of the control group as 0% inhibition of the primary and secondary response.

As for `CN(C)CCO[C@H](c1ccccc1)c1ccnn1C.COc1ccc2cc([C@H](C)C(=O)O)ccc2c1` [R-(+)-Cizolirtine naproxenate, R-(+)-5-[α-[2-(Dimethylamino)ethoxy]benzyl]-1-methyl-1H-pyrazole naproxenate], the “% Activity (inhibition of the writhing reactions)” value in the experiment with male Swiss albino mice [1] (40 mg/kg p.o.) was 32.0%; in the experiment with male Swiss albino mice [1] (80 mg/kg p.o.) it was 52.0%; with male Swiss albino mice [1] (160 mg/kg p.o.) it was 77.3%. Further, the ED50 in the experiment on male Swiss albino mice [1] is 71.29. Also, in the experiment on male Swiss albino mice [2] (acute phase 0-5 minutes), the “% Activity Phase I” value is reported as 49%. Further, the “% Activity Phase II” value in the experiment with male Swiss albino mice [2] (chronic phase 15-30 minutes) amounted to 36%.
Take `CN(C)CCO[C@@H](c1ccccc1)c1ccnn1C.COc1ccc2cc([C@H](C)C(=O)O)ccc2c1` [S-(−)-Cizolirtine naproxenate, S-(−)-5-[α-[2-(Dimethylamino)ethoxy]benzyl]-1-methyl-1H-pyrazole naproxenate]: the figures for the “% Activity (inhibition of the writhing reactions)” value with male Swiss albino mice [1] (40 mg/kg p.o.), in the experiment with male Swiss albino mice [1] (80 mg/kg p.o.) and in the experiment with male Swiss albino mice [1] (160 mg/kg p.o.) were 26.7%, 52.4% and 68.5%, respectively. Moreover, the ED50 in the experiment with male Swiss albino mice [1] came to 82.15.
As to `CC(C)Cc1ccc([C@H](C)C(=O)O)cc1.CN(C)CCO[C@H](c1ccccc1)c1ccnn1C` [R-(+)-Cizolirtine ibuprofenate, R-(+)-5-[α-[2-(Dimethylamino)ethoxy]benzyl]-1-methyl-1H-pyrazole S-(+)-ibuprofenate], the figures for the “% Activity (inhibition of the writhing reactions)” value in the experiment on male Swiss albino mice [1] (40 mg/kg p.o.), with male Swiss albino mice [1] (80 mg/kg p.o.) and with male Swiss albino mice [1] (160 mg/kg p.o.) were 15.9%, 45% and 80.9%, respectively. Further, in the experiment with male Swiss albino mice [1], the ED50 is 84.8.
`CN(C)CCO[C@@H](c1ccccc1)c1ccnn1C` [S-(−)-Cizolirtine, S-(−)-5-[α-[2-(Dimethylamino)ethoxy]benzyl]-1-methyl-1H-pyrazole]: the “% Activity (inhibition of the writhing reactions)” value in the experiment with male Swiss albino mice [1] (40 mg/kg p.o.) is recorded as 29.0%; with male Swiss albino mice [1] (80 mg/kg p.o.), 49.7%; in the experiment on male Swiss albino mice [1] (160 mg/kg p.o.), 59.7%. For the same molecule, in the experiment with male Swiss albino mice [1], the ED50 is listed as 95.26.
The like results for `CN(C)CCO[C@H](c1ccccc1)c1ccnn1C.O=C(O)Cc1ccccc1Nc1c(Cl)cccc1Cl` [R-(+)-Cizolirtine diclofenacate, R-(+)-5-[α-[2-(Dimethylamino)ethoxy]benzyl]-1-methyl-1H-pyrazole diclofenacate] were, in that order, 14.7%, 57.3%, 72.1% and 84.
